Experimental data: US4442044A, “Process for preparing monoesters and diesters of N-alkyl substituted amino methyl phosphonic acid” (priority 1983, dated 1984)

Experiments:
Assay in all cases: post-emergent herbicidal activity, greenhouse
Format in all cases: in vivo
[1] = tested on: Soybean; settings: Table II
In short: (§1)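 Seeds or propagules sown in compacted top soil, grown 2–3 weeks in greenhouse, then sprayed with compound solution/suspension containing ~0.4% emulsifier at tabulated rates. Injury scored visually versus untreated controls at ~2 and 4 weeks after treatment, expressed as a herbicidal activity index.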

[2] = tested on: Rice; settings: Table II
In short: as §1

[3] = tested on: Sorghum; settings: Table II
In short: as §1

[4] = tested on: Morningglory
In short: as §1

[5] = tested on: Cocklebur; settings: 4 WAT
In short: as §1

[6] = tested on: Velvetleaf
In short: as §1

[7] = tested on: Crabgrass; settings: Table II
In short: as §1

[8] = tested on: Quackgrass; settings: Table I, 4 WAT
In short: as §1

[9] = tested on: Sugar Beet; settings: Table II
In short: as §1

[10] = tested on: Panicum Spp; settings: Table II
In short: as §1

[11] = tested on: Canada Thistle; settings: Table I, 4 WAT
In short: as §1

[12] = tested on: Downy Brome
In short: as §1

[13] = tested on: Wheat; settings: Table II
In short: as §1

[14] = tested on: Johnsongrass; settings: Table I, 4 WAT
In short: as §1

[15] = tested on: Smartweed; settings: 4 WAT
In short: as §1

[16] = tested on: Barnyardgrass
In short: as §1

[17] = tested on: Lambsquarters
In short: as §1

[18] = tested on: Wild Buckwheat; settings: Table II
In short: as §1

[19] = tested on: Yellow Nutsedge; settings: Table I, 4 WAT
In short: as §1

[20] = tested on: Hemp Sesbania; settings: Table II, 1.12 kg/h
In short: as §1

## CCOC(=O)CNCP(=O)(OCC1COC(C)(C)O1)OCC1COC(C)(C)O1 (stereo not shown) [Example 22, glycine, N-[[bis[(2,2-dimethyl-1,3-dioxolan-4-yl)methoxy]phosphinyl]methyl]-, ethyl ester]
[1]; 2 WAT, 1.12 kg/h
  post-emergent herbicidal activity index: 0 (0-24% control)
[1]; 4 WAT, 5.6 kg/h
  post-emergent herbicidal activity index: 0 (0-24% control)
[2]; 2 WAT, 1.12 kg/h
  post-emergent herbicidal activity index: 0 (0-24% control)
[2]; 4 WAT, 5.6 kg/h
  post-emergent herbicidal activity index: 0 (0-24% control)
[3]; 2 WAT, 1.12 kg/h
  post-emergent herbicidal activity index: 0 (0-24% control)
[3]; 4 WAT, 5.6 kg/h
  post-emergent herbicidal activity index: 1 (25-49% control)
[4]; Table I, 4 WAT, 11.2 kg/h
  post-emergent herbicidal activity index: 1 (25-49% control)
[4]; Table I, 4 WAT, 56.0 kg/h
  post-emergent herbicidal activity index: 2 (50-74% control)
[4]; Table II, 2 WAT, 1.12 kg/h
  post-emergent herbicidal activity index: 0 (0-24% control)
[4]; Table II, 4 WAT, 5.6 kg/h
  post-emergent herbicidal activity index: 1 (25-49% control)
[5]; Table I, 11.2 kg/h
  post-emergent herbicidal activity index: 0 (0-24% control)
[5]; Table I, 56.0 kg/h
  post-emergent herbicidal activity index: 2 (50-74% control)
[5]; Table II, 5.6 kg/h
  post-emergent herbicidal activity index: 0 (0-24% control)
[6]; Table I, 4 WAT, 11.2 kg/h
  post-emergent herbicidal activity index: 0 (0-24% control)
[6]; Table I, 4 WAT, 56.0 kg/h
  post-emergent herbicidal activity index: 2 (50-74% control)
[6]; Table II, 2 WAT, 1.12 kg/h
  post-emergent herbicidal activity index: 0 (0-24% control)
[6]; Table II, 4 WAT, 5.6 kg/h
  post-emergent herbicidal activity index: 1 (25-49% control)
[7]; 2 WAT, 1.12 kg/h
  post-emergent herbicidal activity index: 1 (25-49% control)
[7]; 4 WAT, 5.6 kg/h
  post-emergent herbicidal activity index: 2 (50-74% control)
[8]; 11.2 kg/h
  post-emergent herbicidal activity index: 0 (0-24% control)
[8]; 56.0 kg/h
  post-emergent herbicidal activity index: 3 (75-99% control)
[9]; 2 WAT, 1.12 kg/h
  post-emergent herbicidal activity index: 0 (0-24% control)
[9]; 4 WAT, 5.6 kg/h
  post-emergent herbicidal activity index: 0 (0-24% control)
[10]; 2 WAT, 1.12 kg/h
  post-emergent herbicidal activity index: 0 (0-24% control)
[10]; 4 WAT, 5.6 kg/h
  post-emergent herbicidal activity index: 3 (75-99% control)
[11]; 11.2 kg/h
  post-emergent herbicidal activity index: 0 (0-24% control)
[11]; 56.0 kg/h
  post-emergent herbicidal activity index: 2 (50-74% control)
[12]; Table I, 4 WAT, 11.2 kg/h
  post-emergent herbicidal activity index: 0 (0-24% control)
[12]; Table I, 4 WAT, 56.0 kg/h
  post-emergent herbicidal activity index: 2 (50-74% control)
[12]; Table II, 2 WAT, 1.12 kg/h
  post-emergent herbicidal activity index: 0 (0-24% control)
[12]; Table II, 4 WAT, 5.6 kg/h
  post-emergent herbicidal activity index: 0 (0-24% control)
[13]; 2 WAT, 1.12 kg/h
  post-emergent herbicidal activity index: 0 (0-24% control)
[13]; 4 WAT, 5.6 kg/h
  post-emergent herbicidal activity index: 1 (25-49% control)
[14]; 11.2 kg/h
  post-emergent herbicidal activity index: 0 (0-24% control)
[14]; 56.0 kg/h
  post-emergent herbicidal activity index: 1 (25-49% control)
[15]; Table I, 11.2 kg/h
  post-emergent herbicidal activity index: 0 (0-24% control)
[15]; Table I, 56.0 kg/h
  post-emergent herbicidal activity index: 3 (75-99% control)
[16]; Table I, 4 WAT, 11.2 kg/h
  post-emergent herbicidal activity index: 3 (75-99% control)
[16]; Table I, 4 WAT, 56.0 kg/h
  post-emergent herbicidal activity index: 3 (75-99% control)
[16]; Table II, 2 WAT, 1.12 kg/h
  post-emergent herbicidal activity index: 1 (25-49% control)
[16]; Table II, 4 WAT, 5.6 kg/h
  post-emergent herbicidal activity index: 2 (50-74% control)
[17]; Table I, 4 WAT, 11.2 kg/h
  post-emergent herbicidal activity index: 0 (0-24% control)
[17]; Table I, 4 WAT, 56.0 kg/h
  post-emergent herbicidal activity index: 3 (75-99% control)
[17]; Table II, 2 WAT, 1.12 kg/h
  post-emergent herbicidal activity index: 1 (25-49% control)
[17]; Table II, 4 WAT, 5.6 kg/h
  post-emergent herbicidal activity index: 0 (0-24% control)
[18]; 2 WAT, 1.12 kg/h
  post-emergent herbicidal activity index: 0 (0-24% control)
[18]; 4 WAT, 5.6 kg/h
  post-emergent herbicidal activity index: 2 (50-74% control)
[19]; 11.2 kg/h
  post-emergent herbicidal activity index: 0 (0-24% control)
[19]; 56.0 kg/h
  post-emergent herbicidal activity index: 2 (50-74% control)
[20]; 2 WAT
  post-emergent herbicidal activity index: 2 (50-74% control)

## CCOC(=O)CNCP(=O)(OCCN1CCCC1)OCCN1CCCC1 [Example 24, glycine, N-[[bis[2-(1-pyrrolidinyl)ethoxy]phosphinyl]methyl]-, ethyl ester]
[1]; 4 WAT, 1.12 kg/h
  post-emergent herbicidal activity index: 0 (0-24% control)
[1]; 4 WAT, 5.6 kg/h
  post-emergent herbicidal activity index: 2 (50-74% control)
[2]; 4 WAT, 1.12 kg/h
  post-emergent herbicidal activity index: 0 (0-24% control)
[2]; 4 WAT, 5.6 kg/h
  post-emergent herbicidal activity index: 2 (50-74% control)
[3]; 4 WAT, 1.12 kg/h
  post-emergent herbicidal activity index: 0 (0-24% control)
[3]; 4 WAT, 5.6 kg/h
  post-emergent herbicidal activity index: 2 (50-74% control)
[4]; Table I, 4 WAT, 5.6 kg/h
  post-emergent herbicidal activity index: 1 (25-49% control)
[4]; Table I, 4 WAT, 11.2 kg/h
  post-emergent herbicidal activity index: 2 (50-74% control)
[4]; Table II, 4 WAT, 1.12 kg/h
  post-emergent herbicidal activity index: 1 (25-49% control)
[4]; Table II, 4 WAT, 5.6 kg/h
  post-emergent herbicidal activity index: 2 (50-74% control)
[5]; Table I, 5.6 kg/h
  post-emergent herbicidal activity index: 1 (25-49% control)
[5]; Table I, 11.2 kg/h
  post-emergent herbicidal activity index: 2 (50-74% control)
[5]; Table II, 1.12 kg/h
  post-emergent herbicidal activity index: 0 (0-24% control)
[5]; Table II, 5.6 kg/h
  post-emergent herbicidal activity index: 3 (75-99% control)
[6]; Table I, 4 WAT, 5.6 kg/h
  post-emergent herbicidal activity index: 1 (25-49% control)
[6]; Table I, 4 WAT, 11.2 kg/h
  post-emergent herbicidal activity index: 1 (25-49% control)
[6]; Table II, 4 WAT, 1.12 kg/h
  post-emergent herbicidal activity index: 0 (0-24% control)
[6]; Table II, 4 WAT, 5.6 kg/h
  post-emergent herbicidal activity index: 2 (50-74% control)
[7]; 4 WAT, 1.12 kg/h
  post-emergent herbicidal activity index: 2 (50-74% control)
[7]; 4 WAT, 5.6 kg/h
  post-emergent herbicidal activity index: 4 (100% control)
[8]; 5.6 kg/h
  post-emergent herbicidal activity index: 1 (25-49% control)
[8]; 11.2 kg/h
  post-emergent herbicidal activity index: 2 (50-74% control)
[9]; 4 WAT, 1.12 kg/h
  post-emergent herbicidal activity index: 0 (0-24% control)
[9]; 4 WAT, 5.6 kg/h
  post-emergent herbicidal activity index: 1 (25-49% control)
[10]; 4 WAT, 1.12 kg/h
  post-emergent herbicidal activity index: 1 (25-49% control)
[10]; 4 WAT, 5.6 kg/h
  post-emergent herbicidal activity index: 4 (100% control)
[11]; 5.6 kg/h
  post-emergent herbicidal activity index: 1 (25-49% control)
[11]; 11.2 kg/h
  post-emergent herbicidal activity index: 1 (25-49% control)
[12]; Table I, 4 WAT, 5.6 kg/h
  post-emergent herbicidal activity index: 0 (0-24% control)
[12]; Table I, 4 WAT, 11.2 kg/h
  post-emergent herbicidal activity index: 1 (25-49% control)
[12]; Table II, 4 WAT, 1.12 kg/h
  post-emergent herbicidal activity index: 0 (0-24% control)
[12]; Table II, 4 WAT, 5.6 kg/h
  post-emergent herbicidal activity index: 2 (50-74% control)
[13]; 4 WAT, 1.12 kg/h
  post-emergent herbicidal activity index: 0 (0-24% control)
[13]; 4 WAT, 5.6 kg/h
  post-emergent herbicidal activity index: 2 (50-74% control)
[14]; 5.6 kg/h
  post-emergent herbicidal activity index: 1 (25-49% control)
[14]; 11.2 kg/h
  post-emergent herbicidal activity index: 2 (50-74% control)
[15]; Table I, 5.6 kg/h
  post-emergent herbicidal activity index: 2 (50-74% control)
[15]; Table I, 11.2 kg/h
  post-emergent herbicidal activity index: 2 (50-74% control)
[15]; Table II, 1.12 kg/h
  post-emergent herbicidal activity index: 2 (50-74% control)
[15]; Table II, 5.6 kg/h
  post-emergent herbicidal activity index: 2 (50-74% control)
[16]; Table I, 4 WAT, 5.6 kg/h
  post-emergent herbicidal activity index: 2 (50-74% control)
[16]; Table I, 4 WAT, 11.2 kg/h
  post-emergent herbicidal activity index: 3 (75-99% control)
[16]; Table II, 4 WAT, 1.12 kg/h
  post-emergent herbicidal activity index: 1 (25-49% control)
[16]; Table II, 4 WAT, 5.6 kg/h
  post-emergent herbicidal activity index: 3 (75-99% control)
[17]; Table I, 4 WAT, 5.6 kg/h
  post-emergent herbicidal activity index: 3 (75-99% control)
[17]; Table I, 4 WAT, 11.2 kg/h
  post-emergent herbicidal activity index: 1 (25-49% control)
[17]; Table II, 4 WAT, 1.12 kg/h
  post-emergent herbicidal activity index: 1 (25-49% control)
[17]; Table II, 4 WAT, 5.6 kg/h
  post-emergent herbicidal activity index: 3 (75-99% control)
[18]; 4 WAT, 1.12 kg/h
  post-emergent herbicidal activity index: 0 (0-24% control)
[18]; 4 WAT, 5.6 kg/h
  post-emergent herbicidal activity index: 1 (25-49% control)
[19]; 5.6 kg/h
  post-emergent herbicidal activity index: 2 (50-74% control)
[19]; 11.2 kg/h
  post-emergent herbicidal activity index: 1 (25-49% control)
[20]; 4 WAT
  post-emergent herbicidal activity index: 1 (25-49% control)
